The source of these data is patent US9062124B2, “GIP-based mixed agonists for treatment of metabolic disorders and obesity” (priority 2008, dated 2015).

Format in all cases: cell-based
In assay [1] the target is T1, glucagon receptor (Homo sapiens, UniProt P47871).
T1 construct: expressed in transfected cells; host or cells: HEK293
The experiment in a line: cAMP synthesis functional assay (firefly luciferase reporter in HEK293 cells), glucagon receptor. To be noted: Table 1; relative to the native hormone of the indicated receptor.

Assay [2] has as its target T2, GIP receptor (Homo sapiens, UniProt P48546).
T2 construct: expressed in transfected cells; host or cells: HEK293
T2 sequence (P48546 22-466): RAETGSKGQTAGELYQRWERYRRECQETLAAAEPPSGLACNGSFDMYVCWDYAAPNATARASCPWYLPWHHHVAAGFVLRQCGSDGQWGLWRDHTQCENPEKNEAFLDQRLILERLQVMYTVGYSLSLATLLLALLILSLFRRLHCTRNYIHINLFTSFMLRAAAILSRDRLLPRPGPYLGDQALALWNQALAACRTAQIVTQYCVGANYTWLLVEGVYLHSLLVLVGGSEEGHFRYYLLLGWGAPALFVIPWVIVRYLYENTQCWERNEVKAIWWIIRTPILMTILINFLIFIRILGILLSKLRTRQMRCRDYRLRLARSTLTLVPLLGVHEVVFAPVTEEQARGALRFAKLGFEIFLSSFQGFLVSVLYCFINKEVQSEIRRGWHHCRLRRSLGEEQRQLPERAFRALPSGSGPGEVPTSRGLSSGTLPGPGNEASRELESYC
Description: cAMP synthesis functional assay (firefly luciferase reporter in HEK293 cells), GIP receptor. To be noted: Table 1; relative to the native hormone of the indicated receptor. On the technique in general: A reporter such as luciferase makes a cellular process visible.

In assay [3] the target is T3, GLP-1 receptor (Homo sapiens, UniProt P43220).
T3 construct: expressed in transfected cells; host or cells: HEK293
Description: cAMP synthesis functional assay (firefly luciferase reporter in HEK293 cells), GLP-1 receptor. To be noted: Table 1; for GLP-1 Receptor relative activity: relative to the native hormone of the indicated receptor; for EC50: GLP-1 Receptor EC50, nM.

Assay [4] relates to glucagon receptor, GLP-1 receptor or GIP receptor. Description: Agonist profile across receptors assigned from the cAMP reporter assay data. To be noted: assigned from the in vitro EC50 data of Tables 1-4.

Where a SMILES comes first, the peptide text is derived from it. Bridges are numbered along the chain shown (N, C = ends). Where no end group is shown, it is not given here. [ ]: non-standard residue; d: D form. PEG 40 kDa = PEG (40 kDa) covalently attached to Cys; C18 acyl = 18 carbon fatty acyl group; Aib = CC(C)(N)C(=O)O

T3 sequence (P43220 24-463, species assumed): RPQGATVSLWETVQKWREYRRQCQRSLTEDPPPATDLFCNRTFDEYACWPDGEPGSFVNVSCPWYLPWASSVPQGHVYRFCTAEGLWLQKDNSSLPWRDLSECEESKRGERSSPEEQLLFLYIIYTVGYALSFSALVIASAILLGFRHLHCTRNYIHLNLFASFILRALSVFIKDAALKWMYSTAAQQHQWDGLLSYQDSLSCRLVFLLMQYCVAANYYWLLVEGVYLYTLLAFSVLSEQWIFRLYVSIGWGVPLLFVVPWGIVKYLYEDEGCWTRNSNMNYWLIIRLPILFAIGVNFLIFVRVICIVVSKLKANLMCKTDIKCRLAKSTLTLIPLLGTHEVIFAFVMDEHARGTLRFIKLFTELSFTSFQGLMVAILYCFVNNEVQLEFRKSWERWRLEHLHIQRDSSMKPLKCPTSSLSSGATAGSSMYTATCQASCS
T1 sequence (P47871 26-477): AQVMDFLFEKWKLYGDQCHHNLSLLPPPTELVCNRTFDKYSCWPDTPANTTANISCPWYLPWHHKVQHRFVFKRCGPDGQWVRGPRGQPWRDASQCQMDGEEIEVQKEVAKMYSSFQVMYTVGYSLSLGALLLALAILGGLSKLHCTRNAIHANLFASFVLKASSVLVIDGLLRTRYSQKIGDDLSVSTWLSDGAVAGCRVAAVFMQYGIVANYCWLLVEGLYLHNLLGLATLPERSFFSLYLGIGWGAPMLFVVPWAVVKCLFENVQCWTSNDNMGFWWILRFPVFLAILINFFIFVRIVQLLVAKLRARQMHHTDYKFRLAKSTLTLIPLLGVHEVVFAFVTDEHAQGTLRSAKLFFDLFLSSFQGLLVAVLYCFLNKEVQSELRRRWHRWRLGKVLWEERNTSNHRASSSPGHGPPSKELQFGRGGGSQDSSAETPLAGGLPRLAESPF

In the case of `CC[C@H](C)[C@@H]1NC(=O)[C@@H](NC(=O)[C@H](CC(=O)O)NC(=O)[C@H](CC(C)C)NC(=O)[C@H](Cc2ccc(O)cc2)NC(=O)[C@H](CCCCN)NC(=O)[C@H](CO)NC(=O)[C@H](Cc2ccc(O)cc2)NC(=O)[C@H](CC(=O)O)NC(=O)[C@H](CO)NC(=O)[C@@H](NC(=O)[C@H](Cc2ccccc2)NC(=O)[C@@H](NC(=O)CNC(=O)[C@H](CCC(N)=O)NC(=O)[C@H](CO)NC(=O)[C@@H](N)Cc2ccc(O)cc2)[C@@H](C)O)[C@@H](C)O)CCC(=O)NCCCC[C@@H](C(=O)N[C@@H](CC(=O)O)C(=O)N[C@@H](Cc2ccccc2)C(=O)N[C@H](C(=O)N[C@@H](CC(N)=O)C(=O)N[C@@H](Cc2c[nH]c3ccccc23)C(=O)N[C@@H](CC(C)C)C(=O)N[C@@H](CC(C)C)C(=O)N[C@@H](C)C(=O)NCC(=O)NCC(=O)N2CCC[C@H]2C(=O)N[C@@H](CO)C(=O)N[C@@H](CO)C(=O)NCC(=O)N[C@@H](C)C(=O)N2CCC[C@H]2C(=O)N2CCC[C@H]2C(=O)N2CCC[C@H]2C(=O)N[C@@H](CO)C(N)=O)C(C)C)NC(=O)[C@H](CCC(N)=O)NC(=O)[C@H](Cc2c[nH]cn2)NC1=O` [mt-116] (H-YSQGTFTSDYSKYLDEIHQKDFVNWLLAGGPSSGAPPPS-NH2; lactam 16-20; N-terminus assumed), the “Glucagon Receptor relative activity” value in assay [1] is 18.68%. In assay [2], the “GIP Receptor relative activity” value was determined as 7.62%. The “GLP-1 Receptor relative activity” value in assay [3] was determined as 1.07%. The “receptor activity profile (glucagon / GLP-1 / GIP agonism)” value in assay [4] is recorded as “exemplary GIP/glucagon co-agonist peptides”.

On to `CC[C@H](C)[C@H](NC(=O)[C@H](CO)NC(=O)[C@H](Cc1ccc(O)cc1)NC(=O)[C@H](CC(=O)O)NC(=O)[C@H](CO)NC(=O)[C@@H](NC(=O)[C@H](Cc1ccccc1)NC(=O)[C@@H](NC(=O)CNC(=O)[C@H](CCC(N)=O)NC(=O)[C@H](CO)NC(=O)[C@@H](N)Cc1ccc(O)cc1)[C@@H](C)O)[C@@H](C)O)C(=O)N[C@@H](Cc1ccc(O)cc1)C(=O)N[C@@H](CC(C)C)C(=O)N[C@@H](CC(=O)O)C(=O)N[C@H]1CCC(=O)NCCCC[C@@H](C(=O)N[C@@H](CCC(=O)O)C(=O)N[C@@H](Cc2ccccc2)C(=O)N[C@H](C(=O)N[C@@H](CC(N)=O)C(=O)N[C@@H](Cc2c[nH]c3ccccc23)C(=O)N[C@@H](CC(C)C)C(=O)N[C@@H](CC(C)C)C(=O)N[C@@H](C)C(=O)NCC(=O)NCC(=O)N2CCC[C@H]2C(=O)N[C@@H](CO)C(=O)N[C@@H](CO)C(=O)NCC(=O)N[C@@H](C)C(=O)N2CCC[C@H]2C(=O)N2CCC[C@H]2C(=O)N2CCC[C@H]2C(=O)N[C@@H](CO)C(N)=O)C(C)C)NC(=O)[C@H](C)NC(=O)[C@H](C)NC(=O)[C@H](CCC(N)=O)NC1=O` [mt-140] (H-YSQGTFTSDYSIYLDEQAAKEFVNWLLAGGPSSGAPPPS-NH2; lactam 16-20; N-terminus assumed), for which, in assay [1], the “Glucagon Receptor relative activity” value turned out to be 131.15%. The “GIP Receptor relative activity” value in assay [2] is listed as 12.85%. In assay [3], the “GLP-1 Receptor relative activity” value was 49.56%. Besides, the “receptor activity profile (glucagon / GLP-1 / GIP agonism)” value in assay [4] is given as “exemplary GLP-1/GIP/glucagon triagonist peptides”.

`CC[C@H](C)[C@H](NC(=O)[C@H](Cc1ccccc1)NC(=O)[C@H](CCC(=O)O)NC(=O)[C@@H]1CCCCNC(=O)CC[C@H](NC(=O)[C@H](CC(=O)O)NC(=O)[C@H](CC(C)C)NC(=O)[C@H](Cc2ccc(O)cc2)NC(=O)[C@@H](NC(=O)[C@H](CO)NC(=O)[C@H](Cc2ccc(O)cc2)NC(=O)[C@H](CC(=O)O)NC(=O)[C@H](CO)NC(=O)[C@@H](NC(=O)[C@H](Cc2ccccc2)NC(=O)[C@@H](NC(=O)CNC(=O)[C@H](CCC(N)=O)NC(=O)[C@H](CO)NC(=O)[C@@H](N)Cc2ccc(O)cc2)[C@@H](C)O)[C@@H](C)O)[C@@H](C)CC)C(=O)N[C@@H](CCC(N)=O)C(=O)N[C@@H](C)C(=O)N[C@@H](C)C(=O)N1)C(=O)N[C@@H](C)C(=O)N[C@@H](Cc1c[nH]c2ccccc12)C(=O)N[C@@H](CC(C)C)C(=O)N[C@@H](CC(C)C)C(=O)N[C@@H](C)C(=O)NCC(=O)NCC(=O)N1CCC[C@H]1C(=O)N[C@@H](CO)C(=O)N[C@@H](CO)C(=O)NCC(=O)N[C@@H](C)C(=O)N1CCC[C@H]1C(=O)N1CCC[C@H]1C(=O)N1CCC[C@H]1C(=O)N[C@@H](CO)C(N)=O` [mt-147] (H-YSQGTFTSDYSIYLDEQAAKEFIAWLLAGGPSSGAPPPS-NH2; lactam 16-20; N-terminus assumed): the “Glucagon Receptor relative activity” value in assay [1] was found to be 90.52%. For the same molecule, in assay [2], the “GIP Receptor relative activity” value is 43.06%. Also, the “GLP-1 Receptor relative activity” value in assay [3] came out at 33.87%. Moreover, the “receptor activity profile (glucagon / GLP-1 / GIP agonism)” value in assay [4] is recorded as “exemplary GLP-1/GIP/glucagon triagonist peptides”.

In general, EC50 refers to the concentration at which the effect is half-maximal. Read a high EC50 as a less potent agent. For `CC[C@H](C)[C@H](NC(=O)[C@H](Cc1ccccc1)NC(=O)[C@H](CCC(=O)O)NC(=O)[C@@H]1CCCCNC(=O)CC[C@H](NC(=O)[C@H](CC(=O)O)NC(=O)[C@H](CC(C)C)NC(=O)[C@H](Cc2ccc(O)cc2)NC(=O)[C@@H](NC(=O)[C@H](CO)NC(=O)[C@H](Cc2ccc(O)cc2)NC(=O)[C@H](CC(=O)O)NC(=O)[C@H](CO)NC(=O)[C@@H](NC(=O)[C@H](Cc2ccccc2)NC(=O)[C@@H](NC(=O)CNC(=O)[C@H](CCC(=O)O)NC(=O)[C@H](CO)NC(=O)[C@@H](N)Cc2ccc(O)cc2)[C@@H](C)O)[C@@H](C)O)[C@@H](C)CC)C(=O)N[C@@H](CCC(N)=O)C(=O)N[C@@H](C)C(=O)N[C@@H](C)C(=O)N1)C(=O)N[C@@H](C)C(=O)N[C@@H](Cc1c[nH]c2ccccc12)C(=O)N[C@@H](CC(C)C)C(=O)N[C@@H](CC(C)C)C(=O)N[C@@H](C)C(=O)NCC(=O)NCC(=O)N1CCC[C@H]1C(=O)N[C@@H](CO)C(=O)N[C@@H](CO)C(=O)NCC(=O)N[C@@H](C)C(=O)N1CCC[C@H]1C(=O)N1CCC[C@H]1C(=O)N1CCC[C@H]1C(=O)N[C@@H](CO)C(N)=O` [mt-148] (H-YSEGTFTSDYSIYLDEQAAKEFIAWLLAGGPSSGAPPPS-NH2; lactam 16-20; N-terminus assumed), the “Glucagon Receptor relative activity” value in assay [1] was found to be 2.14%. Moreover, the “GIP Receptor relative activity” value in assay [2] was 65.26%. In addition, in assay [3], the EC50 came out at 0.098 nM and the “GLP-1 Receptor relative activity” value is on record as 36.22%. The “receptor activity profile (glucagon / GLP-1 / GIP agonism)” value in assay [4] is on record as “exemplary GLP-1/GIP co-agonist peptides”.

For the molecule `CC[C@H](C)[C@H](NC(=O)[C@H](CO)NC(=O)[C@H](Cc1ccc(O)cc1)NC(=O)[C@H](CC(=O)O)NC(=O)[C@H](CO)NC(=O)[C@@H](NC(=O)[C@H](Cc1ccccc1)NC(=O)[C@@H](NC(=O)CNC(=O)[C@H](CCC(=O)O)NC(=O)[C@H](C)NC(=O)[C@@H](N)Cc1ccc(O)cc1)[C@@H](C)O)[C@@H](C)O)C(=O)N[C@@H](Cc1ccc(O)cc1)C(=O)N[C@@H](CC(C)C)C(=O)N[C@@H](CC(=O)O)C(=O)N[C@H]1CCC(=O)NCCCC[C@@H](C(=O)N[C@@H](CCC(=O)O)C(=O)N[C@@H](Cc2ccccc2)C(=O)N[C@H](C(=O)N[C@@H](CC(N)=O)C(=O)N[C@@H](Cc2c[nH]c3ccccc23)C(=O)N[C@@H](CC(C)C)C(=O)N[C@@H](CC(C)C)C(=O)N[C@@H](C)C(=O)NCC(=O)NCC(=O)N2CCC[C@H]2C(=O)N[C@@H](CO)C(=O)N[C@@H](CO)C(=O)NCC(=O)N[C@@H](C)C(=O)N2CCC[C@H]2C(=O)N2CCC[C@H]2C(=O)N2CCC[C@H]2C(=O)N[C@@H](CO)C(N)=O)C(C)C)NC(=O)[C@H](C)NC(=O)[C@H](C)NC(=O)[C@H](CCC(N)=O)NC1=O` [mt-149] (H-YAEGTFTSDYSIYLDEQAAKEFVNWLLAGGPSSGAPPPS-NH2; lactam 16-20; N-terminus assumed), the “Glucagon Receptor relative activity” value in assay [1] came out at 0.64%. Moreover, the “GIP Receptor relative activity” value in assay [2] is listed as 91.18%. In addition, in assay [3], the EC50 was 0.036 nM and the “GLP-1 Receptor relative activity” value is 97.53%. In assay [4], the “receptor activity profile (glucagon / GLP-1 / GIP agonism)” value is recorded as “exemplary GLP-1/GIP co-agonist peptides”.

Regarding `CC[C@H](C)[C@H](NC(=O)[C@H](Cc1ccccc1)NC(=O)[C@H](CCC(=O)O)NC(=O)[C@@H]1CCCCNC(=O)CC[C@H](NC(=O)[C@H](CC(=O)O)NC(=O)[C@H](CC(C)C)NC(=O)[C@H](Cc2ccc(O)cc2)NC(=O)[C@H](CCCCN)NC(=O)[C@H](CO)NC(=O)[C@H](Cc2ccc(O)cc2)NC(=O)[C@H](CC(=O)O)NC(=O)[C@H](CO)NC(=O)[C@@H](NC(=O)[C@H](Cc2ccccc2)NC(=O)[C@@H](NC(=O)CNC(=O)[C@H](CCC(N)=O)NC(=O)[C@H](CO)NC(=O)[C@@H](N)Cc2ccc(O)cc2)[C@@H](C)O)[C@@H](C)O)C(=O)N[C@@H](CCC(N)=O)C(=O)N[C@@H](C)C(=O)N[C@@H](C)C(=O)N1)C(=O)N[C@@H](C)C(=O)N[C@@H](Cc1c[nH]c2ccccc12)C(=O)N[C@@H](CC(C)C)C(=O)N[C@@H](CC(C)C)C(=O)N[C@@H](C)C(=O)NCC(=O)NCC(=O)N1CCC[C@H]1C(=O)N[C@@H](CO)C(=O)N[C@@H](CO)C(=O)NCC(=O)N[C@@H](C)C(=O)N1CCC[C@H]1C(=O)N1CCC[C@H]1C(=O)N1CCC[C@H]1C(=O)N[C@@H](CO)C(N)=O` [mt-151] (H-YSQGTFTSDYSKYLDEQAAKEFIAWLLAGGPSSGAPPPS-NH2; lactam 16-20; N-terminus assumed), the “Glucagon Receptor relative activity” value in assay [1] is given as 30.16%. Also, in assay [2], the “GIP Receptor relative activity” value is given as 7.28%. Further, the “GLP-1 Receptor relative activity” value in assay [3] came out at 30.16%. For the same molecule, in assay [4], the “receptor activity profile (glucagon / GLP-1 / GIP agonism)” value was “exemplary GLP-1/GIP/glucagon triagonist peptides”.

In the case of “mt-310: acylated version of mt-274: C-terminal Lys with C18 fatty acyl group, 40 kDa PEG on Cys at position 24 (Y[Aib]EGTFTSDYSIYLDKQAA[Aib]EFVC(PEG 40 kDa)WLLAGGPSSGAPPPSK(C18 acyl)-NH2)”, in assay [4], the “receptor activity profile (glucagon / GLP-1 / GIP agonism)” value is “exhibited activity at the GIP, GLP-1, and glucagon receptors”.
